For orientation: inhibition means the change of the read-out against control, counted positive when it falls.

Experimental findings from patent publication US11584737B2, “Heterocyclic compound” (TAKEDA PHARMACEUTICAL COMPANY LIMITED, priority 2018, dated 2023) are described below.

For assay [1], the target named is T1, CDK12/CycK complex (Homo sapiens, UniProt Q9NYV4). As to the kind of experiment: Measurement of CDK12 inhibitory activity by binding assay (BODIPY-FL labeled AT-7519 high concentration conditions, 1320 nM). To be noted: inhibitory rate against CDK12 at 1 μM test compound, 1320 nM BODIPY-FL-labeled AT-7519, 8 nM CDK12/CycK. As for the experimental part:
(4) Measurement of CDK12 Inhibitory Activity by Binding Assay (BODIPY-FL Labeled AT-7519 High Concentration Conditions)
(§1) His-tagged CDK12/CycK complex was blended with a binding assay buffer supplemented with BODIPY-FL labeled AT-7519, terbium-labeled streptavidin and biotin-labeled anti-histidine antibody. This solution was added to an assay plate containing a test compound dispensed therein, and the mixture was left standing for 120 min at room temperature. The final concentration of CDK12/CycK complex, BODIPY-FL-labeled AT-7519, terbium-labeled streptavidin and biotin-labeled anti-histidine antibody was set to 8 nM, 1320 nM, 0.2 nM, and 0.4 nM, respectively. The fluorescence intensity derived from terbium and BODIPY-FL was measured using Envision. The signal value of each well was determined using the TR-FRET ratio calculated by the following formula. TR-FRET ratio=(fluorescence value of BODIPY-FL)÷(fluorescence value of terbium)
(§2) The inhibitory rate (%) of the test compound against CDK12 was calculated by the following formula. Inhibitory rate (%)=(1−(TR-FRET ratio of test compound−blank)÷(control−blank))×100
The TR-FRET ratio of the CDK12 enzyme reaction mixture under compound non-addition conditions is indicated as control, and the TR-FRET ratio under 30 μM AT-7519 addition conditions is indicated as blank.
The inhibitory rate of the test compound against CDK12 at 1 μM is shown below.

Assay [2] has as its target T1, CDK12/CycK complex. Briefly: Measurement of CDK12 inhibitory activity by binding assay (TR-FRET, 66 nM BODIPY-FL-labeled AT-7519). To be noted: inhibitory rate against CDK12 at 1 μM test compound, 66 nM BODIPY-FL-labeled AT-7519, 2 nM CDK12/CycK. As for the experimental part: Experimental Example 1: CDK12 Binding Assay
(3) Measurement of CDK12 Inhibitory Activity by Binding Assay
as §1, with “added to” for “blended with”, “antibody, and the mixture was stood for not less than 60 min at room temperature.” for “antibody.”, “2” for “8”, “66” for “1320”
as §2
The TR-FRET ratio of the CDK12 enzyme reaction mixture under compound non-addition conditions is indicated as control, and the TR-FRET ratio under 3 μM AT-7519 addition conditions is indicated as blank.
The inhibitory rate of the test compound against CDK12 at […] is shown below.

T1 sequence (Q9NYV4 whole entry, species assumed): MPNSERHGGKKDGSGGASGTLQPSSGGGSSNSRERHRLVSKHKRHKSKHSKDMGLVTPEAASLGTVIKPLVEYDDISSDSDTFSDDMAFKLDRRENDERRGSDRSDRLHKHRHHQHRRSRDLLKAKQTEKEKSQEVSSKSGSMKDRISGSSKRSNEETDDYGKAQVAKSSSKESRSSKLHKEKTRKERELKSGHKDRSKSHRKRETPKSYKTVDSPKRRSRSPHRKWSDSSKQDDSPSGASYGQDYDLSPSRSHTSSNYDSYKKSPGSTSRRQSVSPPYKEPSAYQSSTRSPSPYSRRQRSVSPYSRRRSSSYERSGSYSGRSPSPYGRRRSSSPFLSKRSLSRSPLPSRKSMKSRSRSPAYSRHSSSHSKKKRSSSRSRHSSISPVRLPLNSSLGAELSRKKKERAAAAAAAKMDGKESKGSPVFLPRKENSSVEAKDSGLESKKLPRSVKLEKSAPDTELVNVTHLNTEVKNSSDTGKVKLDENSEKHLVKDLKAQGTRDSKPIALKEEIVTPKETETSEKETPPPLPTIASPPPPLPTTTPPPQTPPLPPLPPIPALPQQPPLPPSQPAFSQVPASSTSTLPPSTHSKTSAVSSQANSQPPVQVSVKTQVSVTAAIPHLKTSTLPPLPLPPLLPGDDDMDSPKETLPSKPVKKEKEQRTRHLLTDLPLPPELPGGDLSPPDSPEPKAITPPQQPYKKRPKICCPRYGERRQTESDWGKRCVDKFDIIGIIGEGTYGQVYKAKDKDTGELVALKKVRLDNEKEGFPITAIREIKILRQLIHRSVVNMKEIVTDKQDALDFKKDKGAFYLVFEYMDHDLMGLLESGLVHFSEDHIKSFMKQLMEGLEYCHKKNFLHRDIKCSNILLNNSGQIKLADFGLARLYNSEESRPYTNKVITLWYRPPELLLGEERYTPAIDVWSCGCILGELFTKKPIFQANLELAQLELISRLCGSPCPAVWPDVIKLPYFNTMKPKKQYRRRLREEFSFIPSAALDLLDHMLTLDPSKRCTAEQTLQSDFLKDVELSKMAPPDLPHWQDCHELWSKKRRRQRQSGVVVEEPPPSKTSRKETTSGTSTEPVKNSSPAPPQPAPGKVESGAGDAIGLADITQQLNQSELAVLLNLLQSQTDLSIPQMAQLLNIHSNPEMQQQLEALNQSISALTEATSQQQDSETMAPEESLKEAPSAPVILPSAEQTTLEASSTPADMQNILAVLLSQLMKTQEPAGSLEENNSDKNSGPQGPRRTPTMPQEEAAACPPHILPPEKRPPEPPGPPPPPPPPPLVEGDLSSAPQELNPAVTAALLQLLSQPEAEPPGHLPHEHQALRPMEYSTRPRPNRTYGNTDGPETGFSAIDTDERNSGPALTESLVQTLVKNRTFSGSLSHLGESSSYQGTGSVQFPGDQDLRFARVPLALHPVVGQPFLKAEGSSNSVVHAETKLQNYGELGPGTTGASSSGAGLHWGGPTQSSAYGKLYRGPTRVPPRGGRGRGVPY
T1 sequence (O75909 whole entry partner, species assumed): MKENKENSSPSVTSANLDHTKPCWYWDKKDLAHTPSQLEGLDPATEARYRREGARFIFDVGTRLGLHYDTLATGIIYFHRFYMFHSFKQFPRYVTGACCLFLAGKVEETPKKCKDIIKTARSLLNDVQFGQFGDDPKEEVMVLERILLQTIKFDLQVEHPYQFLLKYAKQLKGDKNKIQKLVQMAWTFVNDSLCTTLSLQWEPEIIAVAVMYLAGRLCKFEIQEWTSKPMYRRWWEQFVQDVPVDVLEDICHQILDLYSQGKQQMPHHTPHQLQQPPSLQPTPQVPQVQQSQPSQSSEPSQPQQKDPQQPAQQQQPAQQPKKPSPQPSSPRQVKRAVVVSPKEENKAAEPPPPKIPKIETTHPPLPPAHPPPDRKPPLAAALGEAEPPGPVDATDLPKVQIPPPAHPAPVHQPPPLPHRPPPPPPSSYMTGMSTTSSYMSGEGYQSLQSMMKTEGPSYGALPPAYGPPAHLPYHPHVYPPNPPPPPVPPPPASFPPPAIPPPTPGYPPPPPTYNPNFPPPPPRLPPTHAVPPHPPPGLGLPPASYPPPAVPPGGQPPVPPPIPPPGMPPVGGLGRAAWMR

Regarding `Cn1ccc(-c2cnc(N(C(=O)NCC(F)(F)F)[C@H]3CC[C@H](Nc4ncc(C(F)(F)F)c(-c5ccn(C(F)F)n5)n4)CC3)cn2)cc1=O` [Example 768, 1-(trans-4-((4-(1-(difluoromethyl)-1H-pyrazol-3-yl)-5-(trifluoromethyl)-pyrimidin-2-yl)amino)-cyclohexyl)-1-(5-(1-methyl-2-oxo-1,2-dihydropyridin-4-yl)-pyrazin-2-yl)-3-(2,2,2-trifluoroethyl)urea], on CDK12/CycK complex [1], the inhibition at 1 µM worked out at 92%.
As to `CCCC(=O)N(c1cnc(-c2cnn(C)c2)cn1)[C@H]1CC[C@H](Nc2ncc(C(F)(F)F)c(-c3cncc(S(C)(=O)=O)c3)n2)CC1` [Example 814, N-(trans-4-((4-(5-(methanesulfonyl)pyridin-3-yl)-5-(trifluoromethyl)pyrimidin-2-yl)amino)cyclohexyl)-N-(5-(1-methyl-1H-pyrazol-4-yl)pyrazin-2-yl)butanamide], on CDK12/CycK complex [1], the inhibition at 1 µM came out at 99%.
Take `COCCOC(=O)N(c1cnc(-c2cnc(OC)nc2)cn1)[C@H]1CC[C@H](Nc2ncc(C(F)(F)F)c(-c3cncc(S(C)(=O)=O)c3)n2)CC1` [Example 800, 2-methoxyethyl (trans-4-((4-(5-(methanesulfonyl)pyridin-3-yl)-5-(trifluoromethyl)pyrimidin-2-yl)amino)cyclohexyl) (5-(2-methoxypyrimidin-5-yl)pyrazin-2-yl)carbamate]: the inhibition at 1 µM at CDK12/CycK complex [1] is 91%.
Still for that read-out and setting: as for `COc1ncc(-c2cnc(N(C(=O)NCc3ccccc3)[C@H]3CC[C@H](Nc4ncc(C(F)(F)F)c(OC5(C)COC5)n4)CC3)cn2)cn1` [Example 640, 3-benzyl-1-(5-(2-methoxypyrimidin-5-yl)pyrazin-2-yl)-1-(trans-4-((4-((3-methyloxetan-3-yl)oxy)-5-(trifluoromethyl)pyrimidin-2-yl)amino)cyclohexyl)urea], the figure is 105%; as for `COc1ncc(-c2ccc(N(C(=O)NCC(F)F)[C@H]3CC[C@H](Nc4ncc(C(F)(F)F)c(-c5cncc(S(C)(=O)=O)c5)n4)CC3)nc2)cn1` [Example 741, 3-(2,2-difluoroethyl)-1-(trans-4-((4-(5-(methane-sulfonyl)pyridin-3-yl)-5-(trifluoromethyl)pyrimidin-2-yl)amino)cyclohexyl)-1-(5-(2-methoxypyrimidin-5-yl)pyridin-2-yl)urea], 87%.
The same measure, in the same setting: the figure for `COc1ncc(-c2cnc(N(C(=O)NCC(F)F)[C@H]3CC[C@H](Nc4ncc(C(F)(F)F)c(-c5n[nH]c(C)c5Cl)n4)CC3)cn2)cn1` [Example 745, 1-(trans-4-((4-(4-chloro-5-methyl-1H-pyrazol-3-yl)-5-(trifluoromethyl)pyrimidin-2-yl)amino)cyclohexyl)-3-(2,2-difluoroethyl)-1-(5-(2-methoxypyrimidin-5-yl)pyrazin-2-yl)urea] is 94%; for `COc1ncc(-c2cnc(N(C(=O)NCC(F)F)[C@H]3CC[C@H](Nc4ncc(C(F)(F)F)c(OC5(C)COC5)n4)CC3)cn2)cn1` [Example 777, 3-(2,2-difluoroethyl)-1-(5-(2-methoxypyrimidin-5-yl)pyrazin-2-yl)-1-(trans-4-((4-((3-methyloxetan-3-yl)oxy)-5-(trifluoromethyl)pyrimidin-2-yl)amino)cyclohexyl)urea] it is 92%; for `COCC(=O)N(c1cnc(-c2cnc(OC)nc2)cn1)[C@H]1CC[C@H](Nc2ncc(C(F)(F)F)c(-c3ccn(C(F)F)n3)n2)CC1` [Example 797, N-(trans-4-((4-(1-(difluoro-methyl)-1H-pyrazol-3-yl)-5-(trifluoromethyl)pyrimidin-2-yl)amino)cyclohexyl)-2-methoxy-N-(5-(2-methoxypyrimidin-5-yl)pyrazin-2-yl)acetamide] it is 92%.
Still for that read-out and setting: as for `COCC(=O)N(c1cnc(-c2cnn(C)c2)cn1)[C@H]1CC[C@H](Nc2ncc(C(F)(F)F)c(-c3ccn(C(F)F)n3)n2)CC1` [Example 811, N-(trans-4-((4-(1-(difluoromethyl)-1H-pyrazol-3-yl)-5-(trifluoromethyl)pyrimidin-2-yl)amino)cyclohexyl)-2-methoxy-N-(5-(1-methyl-1H-pyrazol-4-yl)pyrazin-2-yl)acetamide], the figure is 94%; as for `COc1ncc(-c2cnc(N(C(=O)N3CC(C)(O)C3)[C@H]3CC[C@H](Nc4ncc(C(F)(F)F)c(-c5n[nH]cc5Cl)n4)CC3)cn2)cn1` [Example 746, N-(trans-4-((4-(4-chloro-1H-pyrazol-3-yl)-5-(trifluoro-methyl)pyrimidin-2-yl)-amino)cyclohexyl)-3-hydroxy-N-(5-(2-methoxypyrimidin-5-yl)pyrazin-2-yl)-3-methylazetidine-1-carboxamide], 91%.
Consider `COCCNC(=O)N(c1cnc(-c2cnn(C)c2)cn1)[C@H]1CC[C@H](Nc2ncc(C(F)(F)F)c(-c3nn(C(F)F)cc3Cl)n2)CC1` [Example 756, 1-(trans-4-((4-(4-chloro-1-(difluoromethyl)-1H-pyrazol-3-yl)-5-(trifluoromethyl)-pyrimidin-2-yl)amino)cyclo-hexyl)-3-(2-methoxyethyl)-1-(5-(1-methyl-1H-pyrazol-4-yl)pyrazin-2-yl)urea], for which, at CDK12/CycK complex [1], the inhibition at 1 µM was found to be 90%.
With `COCC(=O)N(c1cnc(-c2cnn(C)c2)cn1)[C@H]1CC[C@H](Nc2ncc(C(F)(F)F)c(-c3cncc(S(C)(=O)=O)c3)n2)CC1` [Example 812, N-(trans-4-((4-(5-(methanesulfonyl)pyridin-3-yl)-5-(trifluoromethyl)pyrimidin-2-yl)amino)cyclohexyl)-2-methoxy-N-(5-(1-methyl-1H-pyrazol-4-yl)pyrazin-2-yl)acetamide], at CDK12/CycK complex [1], the inhibition at 1 µM is 95%.
Turning to `COCC(=O)N(c1cnc(-c2cnc(OC)nc2)cn1)[C@H]1CC[C@H](Nc2ncc(C(F)(F)F)c(-c3n[nH]cc3Cl)n2)CC1` [Example 796, N-(trans-4-((4-(4-chloro-1H-pyrazol-3-yl)-5-(trifluoromethyl)pyrimidin-2-yl)amino)cyclohexyl)-2-methoxy-N-(5-(2-methoxypyrimidin-5-yl)pyrazin-2-yl)acetamide], the inhibition at 1 µM on CDK12/CycK complex [1] amounted to 95%.
In the case of `Cn1ccc(-c2ccc(N(C(=O)NCc3ccccc3)[C@H]3CC[C@H](Nc4ncc(C#N)c(-c5ccc(C#N)s5)n4)CC3)cn2)cc1=O` [Example 492, 3-benzyl-1-(trans-4-((5-cyano-4-(5-cyano-2-thienyl)pyrimidin-2-yl)amino)cyclohexyl)-1-(1′-methyl-2′-oxo-1′,2′-dihydro-2,4′-bipyridin-5-yl)urea], the inhibition at 1 µM on CDK12/CycK complex [2] is 92%.
Turning to `COCCNC(=O)N(c1cnc(-c2cnc(OC)nc2)cn1)[C@H]1CC[C@H](Nc2ncc(C(F)(F)F)c(-c3nn(C(F)F)cc3Cl)n2)CC1` [Example 752, 1-(trans-4-((4-(4-chloro-1-(difluoromethyl)-1H-pyrazol-3-yl)-5-(trifluoromethyl)-pyrimidin-2-yl)amino)cyclo-hexyl)-3-(2-methoxyethyl)-1-(5-(2-methoxypyrimidin-5-yl)pyrazin-2-yl)urea], the inhibition at 1 µM on CDK12/CycK complex [1] is 90%.
With `COc1ncc(-c2cnc(N(C(=O)OCCN3CCOCC3)[C@H]3CC[C@H](Nc4ncc(C(F)(F)F)c(-c5cncc(S(C)(=O)=O)c5)n4)CC3)cn2)cn1` [Example 808, 2-(morpholin-4-yl)ethyl (trans-4-((4-(5-(methanesulfonyl)-pyridin-3-yl)-5-(trifluoro-methyl)pyrimidin-2-yl)amino)cyclohexyl) (5-(2-methoxypyrimidin-5-yl)pyrazin-2-yl)carbamate], the inhibition at 1 µM at CDK12/CycK complex [1] is 99%.
As for `COc1ncc(-c2ccc(N(C(=O)OCc3ccccc3)[C@H]3CC[C@H](Nc4ncc(C#N)c(N5CCCC(O)CC5)n4)CC3)nc2)cn1` (stereo partly drawn) [Example 599, benzyl (trans-4-((5-cyano-4-(4-hydroxyazepan-1-yl)pyrimidin-2-yl)amino)cyclohexyl) (5-(2-methoxypyrimidin-5-yl)pyridin-2-yl)carbamate], the inhibition at 1 µM at CDK12/CycK complex [2] was 102%.
`COc1ncc(-c2ccc(N(C(=O)N[C@H](C)c3ccccc3)[C@H]3CC[C@H](Nc4ncc(C(F)(F)F)c(N5CC(C)(O)C5)n4)CC3)nc2)cn1` [Example 631, 1-(trans-4-((4-(3-hydroxy-3-methylazetidin-1-yl)-5-(trifluoromethyl)pyrimidin-2-yl)amino)cyclohexyl)-1-(5-(2-methoxypyrimidin-5-yl)pyridin-2-yl)-3-((1R)-1-phenylethyl)urea]: the inhibition at 1 µM on CDK12/CycK complex [2] was determined as 103%.
